pIC50: −log10 of the molar value.
Tests used:
EP4 = EP4 (Homo sapiens (Human), UniProt P35408); test: hEP4 cAMP assay (BT549 breast cancer cells, HTRF cAMP); format: cell-based; settings: antagonistic activity; mean values where measured multiple times
Protocol: Plate is pre-incubated 45 minutes at room temperature. Subsequently, 2.5 microliters of PGE2 (final conc. 6 nM) are transferred into the assay plate. Plate is incubated 30 minutes at room temperature.

EP2 = EP2 (Homo sapiens (Human), UniProt P43116);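 further: antagonism of PGE2-stimulated cAMP accumulation in SF295 human glioblastoma cells with endogenous EP2, cAMP read by HTRF, expressed relative to DMSO control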
Sequence of EP2 (P43116 whole entry): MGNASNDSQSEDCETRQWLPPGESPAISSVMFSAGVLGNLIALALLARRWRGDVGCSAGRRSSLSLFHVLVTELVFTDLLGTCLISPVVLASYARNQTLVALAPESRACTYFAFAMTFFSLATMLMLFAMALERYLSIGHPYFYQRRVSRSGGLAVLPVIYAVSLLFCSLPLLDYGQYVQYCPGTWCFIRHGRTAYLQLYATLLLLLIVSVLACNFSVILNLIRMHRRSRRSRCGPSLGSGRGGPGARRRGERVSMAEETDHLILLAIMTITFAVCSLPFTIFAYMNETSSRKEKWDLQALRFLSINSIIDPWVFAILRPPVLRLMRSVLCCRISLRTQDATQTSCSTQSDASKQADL

Sequence of EP4 (P35408 whole entry): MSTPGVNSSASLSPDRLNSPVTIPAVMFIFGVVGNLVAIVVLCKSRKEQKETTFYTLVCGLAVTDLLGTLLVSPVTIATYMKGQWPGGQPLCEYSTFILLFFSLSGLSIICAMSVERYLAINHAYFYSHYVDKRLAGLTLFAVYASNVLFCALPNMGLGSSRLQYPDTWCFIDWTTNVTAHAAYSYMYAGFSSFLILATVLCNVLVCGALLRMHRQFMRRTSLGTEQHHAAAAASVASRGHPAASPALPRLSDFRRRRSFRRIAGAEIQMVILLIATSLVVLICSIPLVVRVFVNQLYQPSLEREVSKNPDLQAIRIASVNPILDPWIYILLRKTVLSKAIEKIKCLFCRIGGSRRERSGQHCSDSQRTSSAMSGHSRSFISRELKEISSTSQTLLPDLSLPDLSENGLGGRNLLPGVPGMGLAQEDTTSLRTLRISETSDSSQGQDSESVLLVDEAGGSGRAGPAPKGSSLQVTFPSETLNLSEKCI

SMILES | pIC50 (EP4) | pIC50 (EP2)
Cc1cc(F)c(F)c2c1cc(C)n2CCNc1cc(-c2cc(C(F)(F)F)c(C(=O)O)s2)ncn1 [compound 420] | 7.03 | 7.02
Cc1cc(Cl)cc2c1cc(C)n2CCNc1cc(-c2ccc(C(=O)O)c(CC(C)C)c2)ncn1 [compound 421] | 6.47 | 7.22
Cc1cc(F)cc2c1cc(C)n2CCNc1cc(-c2ccc(C(=O)O)c(CC(C)C)c2)ncn1 [compound 422] | 6.83 | 7.47
Cc1nc(NCCn2c(C)cc3c(C)cc(F)cc32)cc(-c2cc(C(F)(F)F)c(C(=O)O)s2)n1 [compound 423] | 7.46 | 7.36
Cc1cc2c(Cl)ccc(Cl)c2n1CCNc1cc(-c2ccc(C(=O)O)c(SC(C)C)c2)ncn1 [compound 424] | 6.59 | 7.51
CCCc1cc(-c2cc(NCCn3c(C)cc4cc(Cl)cc(F)c43)ncn2)cc(F)c1C(=O)O [compound 425] | 6.28 | 7.14
CCCc1cc(-c2cc(NCCn3c(C)cc4cc(F)cc(Cl)c43)ncn2)cc(Cl)c1C(=O)O [compound 426] | 6.12 | 7.77
CCCc1cc(-c2cc(NCCn3c(C)cc4cc(Cl)cc(F)c43)ncn2)cc(Cl)c1C(=O)O [compound 427] | 6.62 | 7.07
COc1cccc2c1cc(C)n2CCNc1cc(-c2ccc(C(=O)O)c(CC(C)C)c2)ncn1 [compound 428] | 6.79 | 7.96
CCc1cc(-c2cc(NCCn3c(C)cc4c(OC)ccc(Cl)c43)ncn2)cc(F)c1C(=O)O [compound 429] | 6.11 | 7.60
CCOc1cc(-c2cc(NCCn3c(C)cc4c(C)c(F)cc(F)c43)ncn2)ccc1C(=O)O [compound 430] | 7.06 | 8.05
CCOc1cc(-c2cc(NCCn3c(C)cc4c(C)cc(F)c(F)c43)ncn2)ccc1C(=O)O [compound 431] | 6.72 | 7.29
CCOc1cc(-c2cc(NCCn3c(C)cc4c(C)cc(F)cc43)ncn2)cc(Cl)c1C(=O)O [compound 432] | 6.93 | 7.68
CCOc1cc(-c2cc(NCCn3c(C)cc4c(C)ccc(F)c43)ncn2)cc(Cl)c1C(=O)O [compound 433] | 6.97 | 7.21
CCOc1cc(-c2cc(NCCn3c(C)cc4c(C)ccc(F)c43)ncn2)cc(F)c1C(=O)O [compound 435] | 6.80 | 7.89
CCOc1cc(-c2cc(NCCn3c(C)cc4cc(C)cc(F)c43)ncn2)cc(F)c1C(=O)O [compound 436] | 6.10 | 7.34
CCc1cc(-c2cc(NCCn3c(C)cc4c(OC)ccc(F)c43)ncn2)cc(F)c1C(=O)O [compound 437] | 6.70 | 7.82
CCc1cc(-c2cc(NCCn3c(C)cc4c(OC)cc(F)cc43)ncn2)cc(Cl)c1C(=O)O [compound 438] | 6.97 | 7.19
CCCOc1cc(-c2cc(NCCn3c(C)cc4c(C)cc(F)cc43)ncn2)ccc1C(=O)O [compound 439] | 6.57 | 7.72
CCOc1cc(-c2cc(NCCn3c(C)cc4c(C)cc(F)cc43)nc(C)n2)ccc1C(=O)O [compound 440] | 6.04 | 7.24
CCCOc1cc(-c2cc(NCCn3c(C)cc4c(C)ccc(F)c43)ncn2)ccc1C(=O)O [compound 441] | 6.95 | 7.96
CCCc1cc(-c2cc(NCCn3c(C)cc4c(OC)ccc(Cl)c43)ncn2)ccc1C(=O)O [compound 442] | 6.63 | 7.92
CCCc1cc(-c2cc(NCCn3c(C)cc4cc(OC)cc(F)c43)ncn2)ccc1C(=O)O [compound 443] | 6.31 | 6.76
CCCc1cc(-c2cc(NCCn3c(C)cc4c(OC)cccc43)ncn2)cc(Cl)c1C(=O)O [compound 444] | 7.03 | 8.15
CCCc1cc(-c2cc(NCCn3c(C)cc4c(OC)cccc43)ncn2)cc(F)c1C(=O)O [compound 445] | 6.63 | 8.30
COc1ccc(F)c2c1cc(C)n2CCNc1cc(-c2cc(C(F)(F)F)c(C(=O)O)s2)ncn1 [compound 446] | 8.10 | 7.80

SMILES | pIC50 (EP4) | pIC50 (EP2)
COc1cc(F)cc2c1cc(C)n2CCNc1cc(-c2cc(C(F)(F)F)c(C(=O)O)s2)ncn1 [compound 447] | 7.57 | 7.55
COc1c(F)cc(Cl)c2c1cc(C)n2CCNc1cc(-c2ccc(C(=O)O)c(SC)c2)ncn1 [compound 448] | 6.29 | 7.34
CCOc1cc(-c2cc(NCCn3c(C)cc4c(F)c(F)cc(F)c43)ncn2)ccc1C(=O)O [compound 449] | 6.62 | 8.40
CCOc1cc(-c2cc(NCCn3c(C)cc4c(Cl)ccc(F)c43)ncn2)cc(Cl)c1C(=O)O [compound 450] | 6.93 | 8.05
CCNc1cc(-c2cc(NCCn3c(C)cc4c(C#N)ccc(F)c43)ncn2)ccc1C(=O)O [compound 451] | 6.62 | 8.70
Cc1ccc(Cl)c2c1cc(C)n2CCNc1cc(-c2ccc(C(=O)O)c(SC3CCC3)c2)ncn1 [compound 452, 4-{6-[2-(7-Chloro-2,4-dimethyl-indol-1-yl)-ethylamino]-pyrimidin-4-yl}-2-cyclobutylsulfanyl-benzoic acid] | 6.33 | 7.47
Cc1cc2c(Cl)ccc(Cl)c2n1CCNc1cc(-c2ccc(C(=O)O)c(SC3CCC3)c2)ncn1 [compound 453, 2-Cyclobutylsulfanyl-4-{6-[2-(4,7-dichloro-2-methyl-indol-1-yl)-ethylamino]-pyrimidin-4-yl}-benzoic acid] | 6.04 | 7.51
CCOc1cc(-c2cc(NCCn3c(C)cc4c5c(cc(Cl)c43)OCO5)ncn2)ccc1C(=O)O [compound 454, 4-{6-[2-(5-Chloro-7-methyl-[1,3]dioxolo[4,5-e]indol-6-yl)-ethylamino]-pyrimidin-4-yl}-2-ethoxy-benzoic acid] | 6.35 | 7.85
COc1ccc(F)c2c1cc(C)n2CCNc1cc(-c2ccc(-c3nnc(C)o3)c(F)c2)ncn1 [compound 455] | 6.81 | 7.13
Cc1ccc(F)c2c1cc(C)n2CCNc1cc(-c2ccc(-c3n[nH]cc3C(=O)O)cc2)ncn1 [compound 456] | 6.03 | 6.63
COc1ccc(F)c2c1cc(C)n2CCNc1cc(-c2ccc(Cn3cccn3)c(F)c2)ncn1 [compound 457] | 6.32 | 6.05
COc1ccc(F)c2c1cc(C)n2CCNc1cc(-c2ccc(-c3nc(N)sc3C)cc2)ncn1 [compound 458, {6-[4-(2-Amino-5-methyl-thiazol-4-yl)-phenyl]-pyrimidin-4-yl}-[2-(7-fluoro-4-methoxy-2-methyl-indol-1-yl)-ethyl]-amine] | 7.13 | 7.60
COc1ccc(F)c2c1cc(C)n2CCNc1cc(-c2ccc(-n3nc(C)cc3C)cc2)ncn1 [compound 459] | 6.13 | 7.21
CCNc1cc(-c2cc(NCCn3c(C)cc4c5c(cc(Cl)c43)OCO5)ncn2)ccc1C(=O)O [compound 460, 4-{6-[2-(5-Chloro-7-methyl-[1,3]dioxolo[4,5-e]indol-6-yl)-ethylamino]-pyrimidin-4-yl}-2-ethylamino-benzoic acid] | 6.84 | 8.40
COc1cccc2c1cc(C)n2CCNc1cc(-c2ccc3c(c2)CN(CC(C)C)C3=O)ncn1 [compound 462] | 6.07 | 7.21
CCOc1cc(-c2cc(NCCn3c(C)cc4c(OC)cccc43)ncn2)ccc1CNC1CC1 [compound 463] | 6.13 | 6.60
Cc1ccc(F)c2c1cc(C)n2CCNc1cc(-c2ccc(C(=O)O)c(N3CCCC3)c2)ncn1 [compound 464, 4-{6-[2-(7-Fluoro-2,4-dimethyl-indol-1-yl)-ethylamino]-pyrimidin-4-yl}-2-pyrrolidin-1-yl-benzoic acid] | 6.34 | 7.82
CCCN1Cc2cc(-c3cc(NCCn4c(C)cc5c(OC)ccc(F)c54)ncn3)ccc2C1=O [compound 466, 5-{6-[2-(7-Fluoro-4-methoxy-2-methyl-indol-1-yl)-ethylamino]-pyrimidin-4-yl}-2-propyl-2,3-dihydro-isoindol-1-one] | 6.64 | 7.48
Cc1ccc(F)c2c1cc(C)n2CCNc1cc(-c2ccc3c(c2)CN(CC(C)C)C3=O)ncn1 [compound 467] | 6.00 | 6.41
COc1ccc(F)c2c1cc(C)n2CCNc1cc(-c2ccc(N3CCCS3(=O)=O)cc2)ncn1 [compound 469] | 6.18 | 7.17
COc1ccc(F)c2c1cc(C)n2CCNc1cc(-c2ccc(C(=O)O)c3c2ccn3C)ncn1 [compound 470] | 6.13 | 7.20
CNc1nnc(-c2ccc(-c3cc(NCCn4c(C)cc5c(OC)ccc(F)c54)ncn3)cc2)s1 [compound 471, [2-(7-Fluoro-4-methoxy-2-methyl-indol-1-yl)-ethyl]-{6-[4-(5-methylamino-[1,3,4]thiadiazol-2-yl)-phenyl]-pyrimidin-4-yl}-amine] | 7.54 | 8.70
COc1ccc(F)c2c1cc(C)n2CCNc1cc(-c2ccc(C(=O)O)c(OC3CCC3)c2)ncn1 [compound 472, 2-Cyclobutoxy-4-{6-[2-(7-fluoro-4-methoxy-2-methyl-indol-1-yl)-ethylamino]-pyrimidin-4-yl}-benzoic acid] | 7.18 | 8.30
CCOc1cc(-c2cc(NCCn3c(C)cc4c(OC)ccc(F)c43)ncn2)ccc1CNC1CC1 [compound 473] | 6.19 | 6.27
COc1ccc(F)c2c1cc(C)n2CCNc1cc(-c2ccc3c(c2)CN(CC(C)C)C3=O)ncn1 [compound 475] | 6.59 | 7.27
COc1ccc(F)c2c1cc(C)n2CCNc1cc(-c2ccc(-c3csc(C(=O)O)n3)cc2)ncn1 [compound 476, 4-(4-{6-[2-(7-Fluoro-4-methoxy-2-methyl-indol-1-yl)-ethylamino]-pyrimidin-4-yl}-phenyl)-thiazole-2-carboxylic acid] | 7.32 | 7.74
